From patent US8088791B2, “Antibacterial agents” (Biots Scientific Management Pty Ltd, priority 2006, dated 2012) come the findings set out here.

In one test the test system is Bacillus subtilis 168CA. In words: Minimum Inhibitory Concentration (MIC) testing, broth microdilution, Bacillus subtilis. It is filed as cell-based. The note with it: Bacillus subtilis 168CA; for MIC: read-out: Bacillus subtilis MICs Activity. In outline:
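MICs were scored A (≦8 μg/ml), B (16–64 μg/ml) or C (>64 μg/ml), read as the lowest concentration preventing visible growth by eye and spectrophotometry. Plates incubated overnight (16–20 h) at 37 °C, inoculum OD 0.09 diluted 1:100 in 2× broth, per NCCLS guidelines.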

Test [1] relates to Staphylococcus aureus ATCC29213. The experiment in a line: Minimum Inhibitory Concentration (MIC) testing, broth microdilution, Staphylococcus aureus. The class given is cell-based. The note with it: Staphylococcus aureus ATCC29213; for MIC: read-out: Staphylococcus aureus MICs Activity. The protocol:
Compounds of this invention were tested for antimicrobial activity by susceptibility testing in liquid media. MICs for compounds against each strain were determined by a broth microdilution method according to the National Committee for Clinical Laboratory Standards (NCCLS) guidelines. (NCCLS. 2000. Methods for dilution antimicrobial susceptibility tests for bacteria that grow aerobically—fifth edition. Approved standard M7-A5. NCCLS, Wayne, Pa.)
Briefly, test compounds are prepared in 100 μl of 1.6% DMSO solution in multiwell plates. Several bacterial colonies from a freshly streaked plate are transferred to an appropriate rich broth, such as Mueller Hinton. The cell suspension is adjusted to an optical density of 0.09 and further diluted 1:100 with warm 2× broth. This cell suspension is dispensed into the wells containing compound solution so that the final volume is 200 μl. The plates are incubated overnight (16-20 hours) at 37° C. and turbidity is scored by eye and quantified spectrophotometrically. The MIC is defined as the lowest concentration inhibiting visible growth.
Some of the compounds of the Examples were also tested for activity against the pathogenic organism Staphylococcus aureus ATCC29213. […] Activities were again scored as ‘A’ if the MIC was ≦8 micrograms/ml, ‘B’ if the MIC was 16 to 64 micrograms/ml and ‘C’ if the MIC was greater than 64 micrograms/ml.
A general note: Dilution methods test growth across graded concentrations, often in twofold steps.

Converted amounts (≈) assume the structure as drawn. Bounds are passed on as bounds.

Regarding `COc1ccc(-c2nc(COc3ccc(F)c(C(N)=O)c3F)sc2-c2cscn2)cc1` [Example 288, 2,6-Difluoro-3-[4′-(4-methoxy-phenyl)-[4,5′]bithiazolyl-2′-ylmethoxy]-benzamide], the MIC (with Bacillus subtilis 168CA; in test [1]) was under 8 µg/mL in each case.
`NC(=O)c1c(F)ccc(OCc2nc3cc(Br)ccc3s2)c1F` [Example 123, 3-(5-Bromo-benzothiazol-2-ylmethoxy)-2,6-difluoro-benzamide]: the MIC (in the test on Bacillus subtilis 168CA; in test [1]) was under 8 µg/mL in each case.
For `COc1ccc2sc(COc3ccc(F)c(C(N)=O)c3F)nc2c1` [Example 119, 2,6-Difluoro-3-(5-methoxy-benzothiazol-2-ylmethoxy)-benzamide], the MIC (in the test with Bacillus subtilis 168CA; in test [1]) was under 8 µg/mL throughout.
As to `COC(=O)CCCOc1cccc(C(N)=O)c1` [Example 26, Methyl 4-[3-(aminocarbonyl)phenoxy]butanoate], the MIC (in the test on Bacillus subtilis 168CA; in test [1]) was over 64 µg/mL throughout.
Consider `NC(=O)c1c(F)ccc(OCc2nc3cc(F)ccc3s2)c1F` [Example 216, 2,6-Difluoro-3-[(5-fluoro-1,3-benzothiazol-2-yl)methoxy]benzenecarboxamide], for which the MIC (with Bacillus subtilis 168CA; in test [1]) was under 8 µg/mL each time.
On to `CCCCCCOc1cccc(C(N)=O)c1` [Example 8, 3-(Hexyloxy)benzenecarboxamide], for which the MIC (in the test with Bacillus subtilis 168CA; in test [1]) was 16 to 64 µg/mL (≈ 72.3 to 289 µM) each time.
For the compound `NC(=O)c1c(F)ccc(OCc2nc3cc(Cl)ccc3s2)c1Cl` [Example 221, 2-Chloro-3-[(5-chloro-1,3-benzothiazol-2-yl)methoxy]-6-fluorobenzenecarboxamide], the MIC (with Bacillus subtilis 168CA; in test [1]) was under 8 µg/mL throughout.
As for `COC(=O)c1cccc(COc2ccc(F)c(C(N)=O)c2F)c1` [Example 108, 3-(3-Carbamoyl-2,4-difluoro-phenoxymethyl)-benzoic acid methyl ester], the MIC (in the test on Bacillus subtilis 168CA; in test [1]) was 16 to 64 µg/mL (≈ 49.8 to 199 µM) in each case.
As to `CC(C)=CCC/C(C)=C/CCC(C)COc1cccc(C(N)=O)c1` (stereo not drawn) [Example 55, 3-{[(5E)-2,6,10-Trimethyl-5,9-undecadienyl]oxy}benzenecarboxamide], the MIC (in the test on Bacillus subtilis 168CA; in test [1]) was under 8 µg/mL in each case.
For the compound `NC(=O)c1c(F)ccc(OCc2nc(-c3ccccc3Cl)cs2)c1F` [Example 99, 3-[4-(2-Chloro-phenyl)-thiazol-2-ylmethoxy]-2,6-difluoro-benzamide], the MIC (with Bacillus subtilis 168CA; in test [1]) was under 8 µg/mL throughout.
`NC(=O)c1ccnc(OCc2nc(-c3ccc(Cl)cc3)cs2)c1` [Example 275, 2-[4-(4-Chloro-phenyl)-thiazol-2-ylmethoxy]-isonicotinamide]: the MIC (with Bacillus subtilis 168CA; in test [1]) was 16 to 64 µg/mL (≈ 46.3 to 185 µM) each time.
For `Cc1ccc(COc2ccc(F)c(C(N)=O)c2F)o1` [Example 185, 2,6-Difluoro-3-[(5-methyl-2-furyl)methoxy]benzenecarboxamide], the MIC (in the test with Bacillus subtilis 168CA; in test [1]) was over 64 µg/mL throughout.
`NC(=O)c1c(F)ccc(OCc2nc3ccccc3o2)c1F` [Example 209, 3-(1,3-Benzoxazol-2-ylmethoxy)-2,6-difluorobenzenecarboxamide]: the values for the MIC (in the test on Bacillus subtilis 168CA; in test [1]) were 16 to 64 µg/mL (≈ 52.6 to 210 µM) and over 64 µg/mL, respectively.
On the same counts, the results for `CCCCCCCCCOc1ccc(F)c(C(N)=O)c1F` [Example 82, 2,6-Difluoro-3-(nonyloxy)benzenecarboxamide] are under 8 µg/mL and under 8 µg/mL.
On the same counts, the results for `Cc1ccc2oc(COc3ccc(F)c(C(N)=O)c3F)nc2c1` [Example 212, 2,6-Difluoro-3-[(5-methyl-1,3-benzoxazol-2-yl)methoxy]benzenecarboxamide] are under 8 µg/mL and 16 to 64 µg/mL (≈ 50.3 to 201 µM).
With `COc1ccc(-c2nc(COc3ccc(F)c(C(N)=O)c3F)cs2)cc1` [Example 323, 2,6-Difluoro-3-[2-(4-methoxy-phenyl)-thiazol-4-ylmethoxy]-benzamide], the MIC (with Bacillus subtilis 168CA; in test [1]) was under 8 µg/mL in each case.
For the compound `NC(=O)c1c(F)ccc(OCc2nc(-c3ccc(F)cc3)cs2)c1F` [Example 318, 2,6-Difluoro-3-[4-(4-fluoro-phenyl)-thiazol-2-ylmethoxy]-benzamide], the MIC (with Bacillus subtilis 168CA; in test [1]) was under 8 µg/mL each time.
As to `N#Cc1ccc(-c2nc(COc3ccc(F)c(C(N)=O)c3F)sc2Br)cc1` [Example 291, 3-[5-Bromo-4-(4-cyano-phenyl)-thiazol-2-ylmethoxy]-2,6-difluoro-benzamide], the MIC (with Bacillus subtilis 168CA; in test [1]) was under 8 µg/mL each time.
In the case of `CCCCCCCCOc1cccc(C(N)=O)c1` [Example 19, 3-(Octyloxy)benzenecarboxamide], the MIC (in the test with Bacillus subtilis 168CA; in test [1]) was under 8 µg/mL each time.
Take `NC(=O)c1c(F)ccc(OCc2nc(-c3ccc(Cl)cc3)cs2)c1Cl` [Example 274, 2-Chloro-3-[4-(4-chloro-phenyl)-thiazol-2-ylmethoxy]-6-fluoro-benzamide]: the MIC (with Bacillus subtilis 168CA; in test [1]) was under 8 µg/mL throughout.
In the case of `Cc1ccccc1-c1noc(COc2ccc(F)c(C(N)=O)c2F)n1` [Example 252, 2,6-Difluoro-3-[3-(2-methylphenyl)-1,2,4-oxadiazol-5-yl]methoxybenzenecarboxamide], the MIC (in the test with Bacillus subtilis 168CA; in test [1]) was under 8 µg/mL in each case.
For the compound `NC(=O)c1c(F)ccc(OCc2coc(-c3cccs3)n2)c1F` [Example 133, 2,6-Difluoro-3-(2-thiophen-2-yl-oxazol-4-ylmethoxy)-benzamide], the MIC (with Bacillus subtilis 168CA; in test [1]) was under 8 µg/mL throughout.
On to `NC(=O)c1c(F)ccc(OCCn2cccn2)c1F` [Example 144, 2,6-Difluoro-3-(2-pyrazol-1-yl-ethoxy) benzamide], for which the “Bacillus subtilis MICs Activity” value in the test with Bacillus subtilis 168CA is recorded as “C (‘C’ if the MIC was greater than 64 micrograms/ml)”. Moreover, the “Staphylococcus aureus MICs Activity” value in test [1] is recorded as “C (‘C’ if the MIC was greater than 64 micrograms/ml)”.
In the case of `NC(=O)c1c(F)ccc(OCc2nc3cc(-c4ccccc4N)ccc3s2)c1F` [Example 141, 3-[5-(2-Amino-phenyl)-benzothiazol-2-ylmethoxy]-2,6-difluoro-benzamide], the MIC (in the test on Bacillus subtilis 168CA; in test [1]) was under 8 µg/mL each time.
Turning to `CCCC/C=C/CCCCOc1cccc(C(N)=O)c1` [Example 58, 3-[(E)-5-Decenyloxy]benzenecarboxamide], the MIC (with Bacillus subtilis 168CA; in test [1]) was under 8 µg/mL throughout.
For the compound `CCCCCCOc1nccc(C(N)=O)c1Cl` [Example 174, 3-Chloro-2-(hexyloxy)isonicotinamide], the MIC (with Bacillus subtilis 168CA; in test [1]) was 16 to 64 µg/mL (≈ 62.3 to 249 µM) each time.
For `NC(=O)c1c(F)ccc(OCc2ccoc2)c1F` [Example 184, 2,6-Difluoro-3-(3-furylmethoxy)benzenecarboxamide], the MIC (with Bacillus subtilis 168CA; in test [1]) was 16 to 64 µg/mL (≈ 63.2 to 253 µM) each time.
`Cc1ccc(OCc2noc(COc3ccc(F)c(C(N)=O)c3F)n2)cc1` [Example 263, 2,6-Difluoro-3-(3-[(4-methylphenoxy)methyl]-1,2,4-oxadiazol-5-ylmethoxy)benzenecarboxamide]: the MIC with Bacillus subtilis 168CA is under 8 µg/mL; in test [1], 16 to 64 µg/mL (≈ 42.6 to 171 µM).
`CC/C=C\CCCCCOc1cccc(C(N)=O)c1` [Example 61, 3-[(Z)-6-Nonenyloxy]benzenecarboxamide]: the MIC (in the test on Bacillus subtilis 168CA; in test [1]) was under 8 µg/mL in each case.
On to `NC(=O)c1c(F)ccc(OCc2cncs2)c1F` [Example 189, 2,6-Difluoro-3-(1,3-thiazol-5-ylmethoxy)benzenecarboxamide], for which the MIC (in the test on Bacillus subtilis 168CA; in test [1]) was over 64 µg/mL throughout.
For the compound `CCCc1sc(COc2ccc(F)c(C(N)=O)c2F)nc1-c1ccc(OC)cc1` [Example 118, 2,6-Difluoro-3-[4-(4-methoxy-phenyl)-5-propyl-thiazol-2-ylmethoxy]-benzamide], the MIC (in the test on Bacillus subtilis 168CA; in test [1]) was under 8 µg/mL in each case.
Take `CC/C=C\CC/C=C/COc1cccc(C(N)=O)c1` [Example 56, 3-[(2E,6Z)-2,6-Nonadienyloxy]benzenecarboxamide]: the MIC (with Bacillus subtilis 168CA; in test [1]) was under 8 µg/mL in each case.
For `NC(=O)c1c(F)ccc(OCc2nc3cc(-c4ccccc4O)ccc3s2)c1F` [Example 157, 2,6-Difluoro-3-[5-(2-hydroxy-phenyl)-benzothiazol-2-ylmethoxy]-benzamide], the MIC (with Bacillus subtilis 168CA; in test [1]) was under 8 µg/mL throughout.
In the case of `NC(=O)c1c(F)ccc(OCc2nc(Cc3ccccc3)cs2)c1F` [Example 137, 3-(4-Benzyl-thiazol-2-ylmethoxy)-2,6-difluoro benzamide], the “Bacillus subtilis MICs Activity” value in the test on Bacillus subtilis 168CA was “B (‘B’ if the MIC was 16 to 64 micrograms/ml)”. Further, the “Staphylococcus aureus MICs Activity” value in test [1] is “B (‘B’ if the MIC was 16 to 64 micrograms/ml)”.
As for `CCCCCCOc1cccc(C(N)=O)c1F` [Example 165, 2-Fluoro-3-Hexoxy-benzamide], the MIC (in the test with Bacillus subtilis 168CA; in test [1]) was under 8 µg/mL in each case.
As for `NC(=O)c1c(F)ccc(OCc2nc3cc(-c4ccc(O)cc4)ccc3s2)c1F` [Example 140, 2,6-Difluoro-3-[5-(4-hydroxy-phenyl)-benzothiazol-2-ylmethoxy]-benzamide], the MIC in the test on Bacillus subtilis 168CA was over 64 µg/mL; in test [1], under 8 µg/mL.
